Reference: ChEMBL document CHEMBL3871297, “Squarate-based carbocyclic nucleosides: Syntheses, computational analyses and anticancer/antiviral evaluation” (2017)

Legend:
Assay type in all cases: functional
[1] = Cytotoxicity against human SKOV3 cells assessed as cell growth at 10 uM after 2 days by SRB assay relative to control; details: SK-OV-3, 48 h, read-out: Activity
[2] = Cytotoxicity against human SNB75 cells assessed as cell growth at 10 uM after 2 days by SRB assay relative to control; details: SNB-75, 48 h, read-out: Activity
[3] = Cytotoxicity against human OVCAR3 cells assessed as cell growth at 10 uM after 2 days by SRB assay relative to control; details: OVCAR-3, 48 h, read-out: Activity
[4] = Cytotoxicity against human SF539 cells assessed as cell growth at 10 uM after 2 days by SRB assay relative to control; details: SF-539, 48 h, read-out: Activity
[5] = Cytotoxicity against human TK10 cells assessed as cell growth at 10 uM after 2 days by SRB assay relative to control; details: TK-10, 48 h, read-out: Activity
[6] = Cytotoxicity against human RXF393 cells assessed as cell growth at 10 uM after 2 days by SRB assay relative to control; details: RXF 393, 48 h, read-out: Activity
[7] = Cytotoxicity against human HOP62 cells assessed as cell growth at 10 uM after 2 days by SRB assay relative to control; details: HOP-62, 48 h, read-out: Activity
[8] = Cytotoxicity against human UACC62 cells assessed as cell growth at 10 uM after 2 days by SRB assay relative to control; details: UACC-62, 48 h, read-out: Activity
[9] = Cytotoxicity against human MDA-MB-231 cells assessed as cell growth at 10 uM after 2 days by SRB assay relative to control; details: MDA-MB-231, 48 h, read-out: Activity
[10] = Cytotoxicity against human SW620 cells assessed as cell growth at 10 uM after 2 days by SRB assay relative to control; details: SW-620, 48 h, read-out: Activity
[11] = Cytotoxicity against human HOP92 cells assessed as cell growth at 10 uM after 2 days by SRB assay relative to control; details: HOP-92, 48 h, read-out: Activity
[12] = Cytotoxicity against human UO31 cells assessed as cell growth at 10 uM after 2 days by SRB assay relative to control; details: UO-31, 48 h, read-out: Activity
[13] = Cytotoxicity against human BT549 cells assessed as cell growth at 10 uM after 2 days by SRB assay relative to control; details: BT-549, 48 h, read-out: Activity
[14] = Cytotoxicity against human DU145 cells assessed as cell growth at 10 uM after 2 days by SRB assay relative to control; details: DU-145, 48 h, read-out: Activity
[15] = Cytotoxicity against human A498 cells assessed as cell growth at 10 uM after 2 days by SRB assay relative to control; details: A498, 48 h, read-out: Activity
[16] = Cytotoxicity against human NCI-H322M cells assessed as cell growth at 10 uM after 2 days by SRB assay relative to control; details: 48 h, read-out: Activity
[17] = Cytotoxicity against human HeLa cells assessed as reduction in cell viability cell at 300 uM after 24 hrs by MTT assay

Structure (SMILES)	growth at 10 µM [1] [%]	growth at 10 µM [2] [%]	growth at 10 µM [3] [%]	growth at 10 µM [4] [%]	growth at 10 µM [5] [%]	growth at 10 µM [6] [%]	growth at 10 µM [7] [%]	growth at 10 µM [8] [%]	growth at 10 µM [9] [%]	growth at 10 µM [10] [%]	growth at 10 µM [11] [%]	growth at 10 µM [12] [%]	growth at 10 µM [13] [%]	growth at 10 µM [14] [%]	growth at 10 µM [15] [%]	growth at 10 µM [16] [%]	inhibition at 300 µM [17] [%]
COc1c(N[C@H]2C=C[C@@H](CO)C2)c(=O)c1=O	110	107	105	101	105	126	96	101	110	105	111	88.3	110	117	105	108	–
Nc1c(N[C@H]2C=C[C@@H](CO)C2)c(=O)c1=O	112	111	–	98.3	115	143	96.4	98.3	113	105	104	84.6	115	–	114	106	50
O=c1c(O)c(N[C@H]2C=C[C@@H](CO)C2)c1=O	109	103	122	114	132	166	101	118	150	112	121	103	–	120	–	120	–
